Assay results as given in ChEMBL document CHEMBL1201862, “PubChem BioAssay data set” (2004).
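Growth conditions: 96-well plates. Treatment: test compound, 48 hours, 5 concentrations. Analysis: linear interpolation between bracketing concentrations; unreached endpoints set to highest concentration. The concentration for 50% growth inhibition is given as GI50.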 The source made the active and inactive calls. Rule as the data show it: active = GI50 up to about 1.1 µM and inactive = higher.

Assays:
Assay in all cases: NCI-60 cell line screen, 48 h
[1] = test system: A498
[2] = test system: A549
[3] = test system: BT-549
[4] = test system: CAKI-1
[5] = test system: COLO 205
[6] = test system: EKVX
[7] = test system: HCT-116
[8] = test system: HOP-62
[9] = test system: HT-29
[10] = test system: Hs-578T
[11] = test system: IGROV-1
[12] = test system: KM12
[13] = test system: LOX IMVI
[14] = test system: M14
[15] = test system: MDA-MB-435
[16] = test system: MDA-N
[17] = test system: NCI-H226
[18] = test system: NCI/ADR-RES
[19] = test system: OVCAR-3
[20] = test system: OVCAR-4
[21] = test system: OVCAR-5
[22] = test system: OVCAR-8
[23] = test system: RXF 393
[24] = test system: SF-268
[25] = test system: SK-MEL-28
[26] = test system: SK-MEL-5
[27] = test system: SK-OV-3
[28] = test system: SNB-19
[29] = test system: U-251
[30] = test system: UO-31
[31] = test system: 786-0
[32] = test system: ACHN
[33] = test system: CCRF-CEM
[34] = test system: DU-145
[35] = test system: HCC 2998
[36] = test system: HL-60
[37] = test system: HOP-92
[38] = test system: MCF7
[39] = test system: MOLT-4
[40] = test system: Malme-3M
[41] = test system: NCI-H23
[42] = test system: NCI-H460
[43] = test system: NCI-H522
[44] = test system: PC-3
[45] = test system: RPMI-8226
[46] = test system: SF-539
[47] = test system: SN12C
[48] = test system: SNB-75
[49] = test system: SR
[50] = test system: SW-620
[51] = test system: TK-10
[52] = test system: UACC-257
[53] = test system: UACC-62
[54] = test system: HCT-15
[55] = test system: K562
[56] = test system: MDA-MB-231
[57] = test system: SF-295
[58] = test system: SK-MEL-2

In the case of `CCN(CC)CCNc1n[n+]([O-])c2cc([N+](=O)[O-])ccc2[n+]1[O-]`, the GI50 [1] is reported as 1.08 µM (active), the GI50 [2] is reported as 0.678 µM (active) and the GI50 [3] is reported as 1.81 µM (inactive). For the same molecule, the GI50 [4] was 0.204 µM (active), the GI50 [5] was 0.348 µM (active) and the GI50 [6] was 1.9 µM (inactive). For the same molecule, the GI50 [7] was 0.318 µM (active), the GI50 [8] was 0.385 µM (active) and the GI50 [9] was 0.252 µM (active). The GI50 [10] was 3.11 µM (inactive), the GI50 [11] was 0.132 µM (active) and the GI50 [12] was 0.543 µM (active). The GI50 [13] was 0.467 µM (active), the GI50 [14] was 0.423 µM (active) and the GI50 [15] was 0.826 µM (active). For the same molecule, the GI50 [16] was 0.562 µM (active), the GI50 [17] was 1.87 µM (inactive) and the GI50 [18] was 1.11 µM (active). For the same molecule, the GI50 [19] was 0.849 µM (active), the GI50 [20] was 0.828 µM (active) and the GI50 [21] was 1.47 µM (inactive). The GI50 [22] was 0.391 µM (active), the GI50 [23] was 1.47 µM (inactive) and the GI50 [24] was 0.661 µM (active). For the same molecule, the GI50 [25] was 5.35 µM (inactive), the GI50 [26] was 0.362 µM (active) and the GI50 [27] was 0.729 µM (active). For the same molecule, the GI50 [28] was 1.28 µM (inactive), the GI50 [29] was 0.701 µM (active) and the GI50 [30] was 1.49 µM (inactive).
For `O=C1CSc2ccnc(=O)n21`, the GI50 [31] was > 100 µM (inactive), the GI50 [1] was > 100 µM (inactive) and the GI50 [2] was > 100 µM (inactive). The GI50 [32] was > 100 µM (inactive), the GI50 [3] was > 100 µM (inactive) and the GI50 [4] was > 100 µM (inactive). The GI50 [33] was > 100 µM (inactive), the GI50 [5] was > 100 µM (inactive) and the GI50 [34] was > 100 µM (inactive). The GI50 [6] was > 100 µM (inactive), the GI50 [35] was > 100 µM (inactive) and the GI50 [7] was > 100 µM (inactive). The GI50 [36] was > 100 µM (inactive), the GI50 [8] was > 100 µM (inactive) and the GI50 [37] was > 100 µM (inactive). The GI50 [10] was > 100 µM (inactive), the GI50 [11] was > 100 µM (inactive) and the GI50 [14] was > 100 µM (inactive). For the same molecule, the GI50 [38] was > 100 µM (inactive), the GI50 [15] was > 100 µM (inactive) and the GI50 [16] was > 100 µM (inactive). For the same molecule, the GI50 [39] was > 100 µM (inactive), the GI50 [40] was > 100 µM (inactive) and the GI50 [41] was > 100 µM (inactive). For the same molecule, the GI50 [42] was > 100 µM (inactive), the GI50 [43] was > 100 µM (inactive) and the GI50 [20] was > 100 µM (inactive). The GI50 [21] was > 100 µM (inactive), the GI50 [22] was > 100 µM (inactive) and the GI50 [44] was > 100 µM (inactive). For the same molecule, the GI50 [45] was > 100 µM (inactive), the GI50 [23] was > 100 µM (inactive) and the GI50 [24] was > 100 µM (inactive). The GI50 [46] was > 100 µM (inactive), the GI50 [25] was > 100 µM (inactive) and the GI50 [26] was > 100 µM (inactive). The GI50 [27] was > 100 µM (inactive), the GI50 [47] was > 100 µM (inactive) and the GI50 [28] was > 100 µM (inactive). For the same molecule, the GI50 [48] was 93.5 µM (inactive), the GI50 [49] was > 100 µM (inactive) and the GI50 [50] was > 100 µM (inactive). The GI50 [51] was > 100 µM (inactive), the GI50 [29] was > 100 µM (inactive) and the GI50 [52] was > 100 µM (inactive). For the same molecule, the GI50 [53] was > 100 µM (inactive) and the GI50 [30] was > 100 µM (inactive).
With `CC(/C=N\NC(=S)N1CCCCC1)=N/NC(=S)N1CCCCC1` the GI50 [31] was 2.03 µM (inactive), the GI50 [1] was 1.35 µM (inactive) and the GI50 [2] was 0.692 µM (active). For the same molecule, the GI50 [32] was 0.611 µM (active), the GI50 [3] was 3.03 µM (inactive) and the GI50 [4] was 1.33 µM (inactive). For the same molecule, the GI50 [5] was 1.75 µM (inactive), the GI50 [34] was 0.547 µM (active) and the GI50 [6] was 1.88 µM (inactive). For the same molecule, the GI50 [35] was 1.63 µM (inactive), the GI50 [7] was 0.627 µM (active) and the GI50 [54] was 0.42 µM. For the same molecule, the GI50 [8] was 0.991 µM (active), the GI50 [37] was 2.38 µM (inactive) and the GI50 [9] was 0.931 µM (active). For the same molecule, the GI50 [10] was 1.41 µM (inactive), the GI50 [11] was 1.04 µM (active) and the GI50 [55] was 1.12 µM (active). For the same molecule, the GI50 [12] was 1.09 µM (active), the GI50 [13] was 0.82 µM (active) and the GI50 [14] was 1.28 µM (inactive). For the same molecule, the GI50 [38] was 1.48 µM (inactive), the GI50 [56] was 2.45 µM (inactive) and the GI50 [15] was 2.75 µM (inactive). For the same molecule, the GI50 [16] was 2.89 µM (inactive), the GI50 [39] was 0.514 µM (active) and the GI50 [40] was 2.15 µM (inactive). The GI50 [17] was 1.09 µM (active), the GI50 [41] was 2.42 µM (inactive) and the GI50 [42] was 0.358 µM (active). The GI50 [43] was 1.54 µM (inactive), the GI50 [18] was 0.759 µM (active) and the GI50 [19] was 1.53 µM (inactive). The GI50 [20] was 2.3 µM (inactive), the GI50 [21] was 2.69 µM (inactive) and the GI50 [22] was 0.551 µM (active). The GI50 [44] was 0.957 µM (active), the GI50 [45] was 2.32 µM (inactive) and the GI50 [23] was 2.01 µM (inactive). The GI50 [24] was 1.05 µM (active), the GI50 [57] was 0.627 µM (active) and the GI50 [46] was 3.65 µM (inactive). For the same molecule, the GI50 [25] was 4.49 µM (inactive), the GI50 [58] was 1.28 µM (inactive) and the GI50 [26] was 1.23 µM (inactive). For the same molecule, the GI50 [27] was 1.04 µM (active), the GI50 [47] was 1.35 µM (inactive) and the GI50 [28] was 2.14 µM (inactive). The GI50 [48] was 1.69 µM (inactive), the GI50 [50] was 0.935 µM (active) and the GI50 [51] was 2.06 µM (inactive). The GI50 [29] was 0.815 µM (active), the GI50 [52] was 2.94 µM (inactive) and the GI50 [53] was 0.671 µM (active). The GI50 [30] was 0.649 µM (active).
`CC(O)(P(=O)(O)O)P(=O)(O)OCC(O)CN1CCOCC1` (centres undefined) was tested, and the GI50 [31] was > 100 µM (inactive), the GI50 [1] was > 100 µM (inactive) and the GI50 [2] was > 100 µM (inactive). For the same molecule, the GI50 [32] was > 100 µM (inactive), the GI50 [3] was > 100 µM (inactive) and the GI50 [4] was > 100 µM (inactive). For the same molecule, the GI50 [33] was > 100 µM (inactive), the GI50 [5] was > 100 µM (inactive) and the GI50 [34] was > 100 µM (inactive). For the same molecule, the GI50 [6] was > 100 µM (inactive), the GI50 [35] was > 100 µM (inactive) and the GI50 [7] was > 100 µM (inactive). The GI50 [54] was > 100 µM, the GI50 [36] was > 100 µM (inactive) and the GI50 [8] was > 100 µM (inactive). The GI50 [37] was > 100 µM (inactive), the GI50 [9] was > 100 µM (inactive) and the GI50 [10] was > 100 µM (inactive). The GI50 [11] was > 100 µM (inactive), the GI50 [55] was > 100 µM (inactive) and the GI50 [12] was > 100 µM (inactive). For the same molecule, the GI50 [13] was > 100 µM (inactive), the GI50 [14] was > 100 µM (inactive) and the GI50 [38] was > 100 µM (inactive). The GI50 [56] was > 100 µM (inactive), the GI50 [15] was > 100 µM (inactive) and the GI50 [16] was > 100 µM (inactive). The GI50 [39] was > 100 µM (inactive), the GI50 [40] was > 100 µM (inactive) and the GI50 [17] was > 100 µM (inactive). For the same molecule, the GI50 [41] was > 100 µM (inactive), the GI50 [42] was > 100 µM (inactive) and the GI50 [43] was > 100 µM (inactive). The GI50 [18] was > 100 µM (inactive), the GI50 [21] was > 100 µM (inactive) and the GI50 [22] was > 100 µM (inactive). The GI50 [44] was > 100 µM (inactive), the GI50 [45] was > 100 µM (inactive) and the GI50 [23] was > 100 µM (inactive). The GI50 [24] was > 100 µM (inactive), the GI50 [57] was > 100 µM (inactive) and the GI50 [46] was 95.1 µM (inactive). For the same molecule, the GI50 [25] was > 100 µM (inactive), the GI50 [27] was > 100 µM (inactive) and the GI50 [28] was > 100 µM (inactive). For the same molecule, the GI50 [49] was > 100 µM (inactive), the GI50 [50] was > 100 µM (inactive) and the GI50 [51] was > 100 µM (inactive). For the same molecule, the GI50 [29] was > 100 µM (inactive), the GI50 [52] was > 100 µM (inactive) and the GI50 [53] was > 100 µM (inactive). The GI50 [30] was > 100 µM (inactive).
